# Measured values as given in patent US8658777B2, “Activated protease indicator” (The University of Tokyo, priority 2007, dated 2014).
# *1 amine or outer side, *2 acyl side, *3 side chain or, on linkers, in order; H or OH if unused. Where a SMILES comes first, the peptide text is derived from it. Bridges are numbered along the chain shown (N, C = ends). Roman numbers before positions name the chains, in order. [ ]: non-standard residue; d: D form. The star is where a group is joined. Actinocin(9to1) = Cc1c2oc3c(C)ccc(C(=O)[*:1])c3nc-2c(C(=O)[*:2])c(N)c1=O; NMeV = CN[C@H](C(=O)O)C(C)C; Cbz = O=C(OCc1ccccc1)*; Sar = CNCC(=O)O; CH2F = FC*
# Tests used:
# [1] = system: caspase-3; assay: Real-time in vitro analysis of caspase-3 activity in HeLa cells expressing cyclic Fluc; assay type: cell-based
# Protocol: (§1) [FIG. 9] Real-time in vitro analysis of caspase-3 activity. Forty eight hours after HeLa cells transfected with pcFluc-DEVD were treated with different concentrations of STS and then the bioluminescence intensities were measured every 5 minutes. The indicated time represents the time after the addition of each agent.
# as §1, with “10] Results of the measurement with actinomycin D (ActD) in the same manner as in FIG. 9.” for “9]”, “capsase-3” for “caspase-3”, “actinomycin D (ActD)” for “STS”
# pcFluc-DEVD was transfected in the HeLa cells in a 10-cm Petri dish for 24 hours. The cells were scraped off and divided in five 3-cm Petri dishes, for culturing for 24 hours. The culture medium was replaced with the Hank's balanced salt solution (Gibco) containing 500 μM D-luciferin and 5% FBS. After the five 3-cm Petri dishes were mounted on a photon counter (KRONOS, ATTO, Tokyo, Japan), the cells were stimulated with STS or actinomycin D (Act D, Sigma). The luminescence intensity in each of the Petri dishes was assayed for a cumulative time period of 45 seconds at an interval of 5 minutes.
# It is known that the time required for caspase-3 activation in response to extracellular stimuli varies with the type of chemical compounds and its concentration. In order to decide upon a screening time, it is crucial to know when the activity of caspase-3 gives a maximum response after stimulation with such apoptotic chemical regents. […] First, the cyclic Fluc indicator was transiently expressed in HeLa cells; the luminescence intensity upon stimulation with STS at various concentrations was monitored every five minutes in a time course (FIG. 9). […] The rate of increase in the luminescence intensity depended on the STS concentration. […] The decrease in the luminescence signal intensity indicates attenuation of active luciferase by proteolysis in the HeLa cells.
# [2] = system: caspase-3; assay: Western blot analysis of cyclic and linear Fluc in COS-7 cells transfected with pcFluc-DEVD; assay type: cell-based; settings: indicated concentrations of STS for two hours, Western blot (FIG. 4)
# Protocol: Western blot analysis of Fluc in the circular form and in the linear form. COS-7 cells transfected with pcFluc-DEVD for 48 hours were treated with the indicated concentrations of STS for two hours and harvested. The sample was electrophoresed, transferred on a nitrocellulose membrane and stained with a specific antibody.
# pcFluc-DEVD was transfected in the COS-7 cells for 48 hours. The cells were stimulated with staurosporine (STS; Sigma, St. Louise, Mo.) and then disrupted in a lysis buffer (1% SDS, 10% glycerol, 10% 2-mercaptoethanol, 0.001% Bromophenol Blue, 50 mM Tris/HCl, pH 6.8). The sample was electrophoresed with 10% SDS polyacrylamide gel, which was then transferred on a nitrocellulose membrane (Hybond-ECL, GE Healthcare, Buckinghamshire, England). Fluc was detected with a polyclonal anti-luciferase antibody (Promega); the immunoreactivity was evaluated, using horseradish peroxidase (HRP) conjugated to an anti-goat IgG antibody (Promega). The HRP activity was visualized, using an ECL advance Western blotting detection kit (GE Healthcare) with LAS-1000 plus image analyzer (Fuji Film Co., Tokyo, Japan).
# To assess whether the fusion protein expressed by pcFluc-DEVD produces cyclic Fluc by protein splicing, herein, pcFluc-DEVD was transfected in COS-7 cells and chimera proteins were transiently expressed for 48 hours. The spliced products were examined by Western blot (FIG. 3). […]
# [3] = system: caspase-3; assay: In vivo imaging of caspase-3 activity in living mice implanted with HeLa cells expressing cyclic Fluc; parameters: species or system BALB/c-nude mouse
# Description: [FIG. 11] In vivo luminescence assay of mice carrying transiently transfected HeLa cells. The mice were subcutaneously implanted with HeLa cells expressing cyclic Fluc (right side) and full-length Fluc (left side). Images of the mice were taken at the indicated times after intraperitoneal injection of STS. A representative of three mice is shown.
# [FIG. 12] Time-dependent changes in the photon count from the implanted site in FIG. 11. The relative luminescence unit (RLU) is shown on the longitudinal axis, where RLU=LumR/LumL provided that luminescence intensity from the right side (LumR) is divided with the luminescence intensity from the left side (LumL), as shown in (A). A relative luminescence unit (RLU) was defined as follows: the luminescence intensity from the right side (LumR) was divided by that from the left side (LumL), as RLU (%)=LumR/LumL.
# pX8luc or pcFluc-DEVD was transfected in HeLa cells for 48 hours. The cells were harvested and suspended in a phosphate buffered saline (PBS), from which 1.0×10^6 cells were transplanted in two different dorsal positions of a BALB/c-nude mouse (female, five-week-old, body weight of about 17 to 20 g). After the cell transplantation, STS dissolved in DMSO was intraperitoneally injected. Immediately thereafter, a PBS buffer containing D-luciferin (600 mg/kg body weight) was intraperitoneally injected, to assay the luminescence from the mouse, using a CCD camera (IVIS200 system, Xenogen, Alameda, Calif.). Photons emitted from the transplanted cells were counted and cumulatively recorded over one minute. Image analysis was done, using the software LIVING IMAGE (Xenogen). So as to quantitatively determine the assayed luminescence, a region of interest was extracted from the cell-transplanted regions, to evaluate the luminescence intensity (photon·second^−1·cm^−2). […]
# To quantitatively evaluate the effect of STS on caspase-3 activity, a relative luminescence unit (RLU) was defined as follows; the luminescence intensity from the right side (LumR) was divided by that from the left side (LumL), as RLU (%)=LumR/LumL. […]
# [4] = system: caspase-3; assay: In vitro assay of firefly luciferase in HeLa cells transfected with pcFluc-DEVD; assay type: cell-based
# Protocol: (§2) [FIG. 7] Quantitative analysis of the Flue activity with STS. After transfection of HeLa cells with pcFluc-DEVD for 48 hours, the cells were treated with various concentrations of STS for two hours. A relative luminescence unit (RLU) was defined as follows: the luminescence intensity from the right side (LumR) was divided by that from the left side (LumL), as RLU (%)=LumR/LumL.
# as §2, with “8]” for “7]”, “Z-VAD-FMK. The” for “STS. After transfection of”, “cells were transfected” for “cells”, “hours,” for “hours, the cells were”, “treated with different concentrations of Z-VAD-FMK or vehicle (0.1% DMSO), and stimulated” for “treated”
# (§3) pcFluc-DEVD and pRL-TK were transfected in the COS-7 cells and the HeLa cells for 48 hours. These cells were treated with STS or a caspase inhibitor Z-VAD-FMK (Sigma) to assay the luciferase activity according to the report (Ozawa, T. et al. (2001) Anal. Chem. 73, 2516-21; Kanno, A. et al. (2006) Anal. Chem. 78, 556-60). The assay time period of Fluc and Renilla reniformis luciferase (Rluc) was 20 seconds. The luminescence from Fluc (LF) was normalized to the luminescence from Rluc (LR), and the resulting value was defined as relative luminescence unit (RLU; RLU=LF/LR). All the assays were done in various wells in a culture plate triplicately, using a luminometer of MiniLuraat LB9506 (Berthold GmbH & Co. KG, Wildbad, Germany). The results are shown as the mean ratio of the RLU value to the RLU value of cells treated with a solvent (0.1% DMSO), together with the standard deviations.
# To show the feasibility of cyclic Fluc for characterizing apoptotic regents, the sensitivity of cyclic Fluc was examined, using HeLa cells. The cells were transfected with pcFluc-DEVD, for transient expression of chimera proteins, which were stimulated with different concentrations of STS for two hours. […]
# [5] = system: caspase-3; assay: In vitro assay of firefly luciferase in COS-7 cells transfected with pcFluc-DEVD; assay type: cell-based
# Protocol: as §2, with “5]” for “7]”, “Fluc” for “Flue”, “STS and Z-VAD-FMK.” for “STS.”, “COS-7” for “HeLa”, “treated with 100 μM Z-VAD-FMK or vehicle (0.1% DMSO) for an hour and then stimulated” for “treated”
# as §3
# In the Example, continuously, it was examined whether the activity of the cyclic Fluc was restored after stimulation with STS. COS-7 cells transfected with pcFluc-DEVD were stimulated with STS or a caspase inhibitor Z-VAD-FMK, or with both STS and Z-VAD-FMK. The cells were harvested and their lysates were mixed with a Fluc substrate, D-luciferin. […] The luminescence signals in the presence of Z-VAD-FMK were smaller than the signals that originated from the cells in the absence of STS and Z-VAD-FMK.
# [6] = system: caspase-3; assay: Fluc activity in caspase-3-deficient MCF-7 cells transfected with pcFluc-DEVD with or without pCaspase-3; assay type: cell-based
# Protocol: Analysis of the Flue activity in the caspase-3-deficient MCF-7 cells. MCF-7 cells were transfected with only pcFluc-DEVD (left) or with both pcFluc-DEVD and pCaspase-3 (right). The cells were incubated for 48 hours and the luminescence intensities were evaluated at the indicated times after stimulation with 100 nM STS. A relative luminescence unit (RLU) was defined as follows: the luminescence intensity from the right side (LumR) was divided by that from the left side (LumL), as RLU (%)=LumR/LumL.
# [7] = STS 100 μg/kg of body weight i.p.
structure (smiles),measurement,setting,value
"Cc1c2oc3c(C)ccc(C(=O)N[C@@H]4C(=O)N[C@H](C(C)C)C(=O)N5CCC[C@H]5C(=O)N(C)CC(=O)N(C)[C@@H](C(C)C)C(=O)O[C@@H]4C)c3nc-2c(C(=O)N[C@@H]2C(=O)N[C@H](C(C)C)C(=O)N3CCC[C@H]3C(=O)N(C)CC(=O)N(C)[C@@H](C(C)C)C(=O)O[C@@H]2C)c(N)c1=O [ActD, actinomycin D] (I: T[dV]P[Sar][NMeV] / II: T[dV]P[Sar][NMeV]; ester I:1-I:C, II:1-II:C; linker I:N-II:N via Actinocin(9to1))",time period over which the luminescence signal intensity increased,"[1]; ActD, then gradually decreased (FIG. 10)",25 to 120 min
"CN[C@@H]1C[C@H]2O[C@@](C)([C@@H]1OC)n1c3ccccc3c3c4c(c5c6ccccc6n2c5c31)C(=O)NC4 [STS, staurosporine]",time at which luminescence signals reach a maximum after stimulation,[1]; STS at various concentrations (FIG. 9),100 min
same,duration of initial slow increase in the luminescence signals,"[1]; STS at various concentrations, measured every five minutes (FIG. 9)",25 min
same,Formation of the linear form of Fluc,[2],dependent on the concentration of STS
same,"luminescence signal from the left side (HeLa cells expressing full-length Fluc, control)",[3]; [7],no significant change
same,luminescence signal intensity from the right side (implanted cyclic Fluc cells),[3]; [7],significant increase
same,maximum RLU ratio in comparison to the RLU before STS stimulation,"[3]; two hours after the intraperitoneal STS injection, RLU=LumR/LumL (FIG. 12)",300 to 400%
same,concentration range inducing an increase in the bioluminescence intensity,"[4]; HeLa cells, STS for two hours (FIG. 7)",10 to 1000 nM
same,luminescence signals,"[5]; COS-7 cells, various concentrations of STS for two hours (FIG. 5)",increased with increase in concentrations of the STS
same,luminescence from the cells,"[6]; MCF-7 cells cotransfected with pcFluc-DEVD and pCaspase-3, stimulation with STS",significantly increased
same,change in the bioluminescence intensity,"[6]; MCF-7 cells transfected with pcFluc-DEVD only, 1 μM STS for two hours",little change
COC(=O)C[C@H](NC(=O)[C@H](C)NC(=O)[C@@H](NC(=O)OCc1ccccc1)C(C)C)C(=O)CF [Z-VAD-FMK] (Cbz-Val-Ala-Asp(OMe)-CH2F),concentrations at which inhibitory effect on the cleavage of the cyclic Fluc was observed,[4]; HeLa cells stimulated with STS for two hours (FIG. 8),higher than 10 μM
same,cleavage of the cyclic Fluc,"[4]; HeLa cells, 100 μM Z-VAD-FMK, STS stimulation",completely suppressed
same,luminescence signal relative to signals from vehicle-treated cells,[5]; COS-7 cells treated with 100 μM Z-VAD-FMK (FIG. 5),50%
same,luminescence,"[5]; COS-7 cells, 100 μM Z-VAD-FMK, in the presence or absence of 1 μM STS",no increase in luminescence
same,basal caspase-3 activities,"[5]; COS-7 cells, 100 μM Z-VAD-FMK, no STS",completely inhibited
